The experiment relates to DIO mice. Nature of the experiment: OGTT with co-administration of 6bK and sitagliptin. Format: in vivo, mouse. The note with it: OGTT 3.0 g kg^-1, sitagliptin 4 mg kg^-1 oral, 6bK 40 mg kg^-1.

In the case of `N[C@@H](CC(=O)N1CCn2c(nnc2C(F)(F)F)C1)Cc1cc(F)c(F)cc1F` [sitagliptin], the “reduction of blood glucose profile area compared to vehicle” value is given as 60–64%.

Values taken from paper PMC4142213 (Nature, 2014).
